PMC11126936, “Reactivating Hippo by drug compounds to suppress gastric cancer and enhance chemotherapy sensitivity” (The Journal of Biological Chemistry, 2024)
Values joined by “and” are separate entries in the source; they are usually repeats but may differ in a detail not shown here. Identical values can stand only once. “Also recorded” adds a separate entry of the source. Like-named read-outs stand apart in the source and are kept apart here.

What was measured:
HGC-27 cells [1] = assay: Cell viability assay in HGC-27 cells; type: cell-based, human; conditions: for inhibition of HGC-27 cell growth / viability: result in words
MKN-28 cells = assay: Killing efficiency in MKN-28 cells; type: cell-based, human
11 different GC cells = assay: Cisplatin cell viability in 11 GC cell lines; conditions: read-out: IC50, cisplatin-sensitive GC cell lines; cell lines with higher pMST1/2 such as NUGC-4
AGS cells = assay: Killing efficiency in AGS cells; type: cell-based, human
AGS cells xenograft = assay: AGS xenograft tumor model; conditions: intratumoral injection, five consecutive days, vs control
Experimental: Briefly, healthy male 615 mice were maintained in pathogen-free conditions. Mice were first injected with 2 × 10^6 AGS cells/per mouse into their flanks to induce tumor formation. Once the tumor volume reached about 100 mm^3, mice were injected intratumorally with indicted inhibitors for five successive days. Two weeks later, the mice were euthanized and then their tumors were harvested and weighed.

NUGC-4 cells = assay: NUGC-4 cell viability, XMU-MP-1 with cisplatin; type: cell-based, human
STRN3–MST2 interaction = target: T1, STRN3–MST2 interaction (Homo sapiens, UniProt Q13188); assay: MBP/GST pull-down and Co-IP, STRN3–MST2; type: binding
T1 construct: GST-tagged MST2 (amino acid 1–308), MBP-tagged MST2 (amino acid 1–308); made in house; host or cells: E. coli BL21 Codon plus (DE3)

MST2^Mut (L33/E35/V41A) = target: T2, MST2^Mut (L33/E35/V41A) (Homo sapiens, UniProt Q13188, E35A/L33A/V41A); assay: MST assay, binding to MST2 mutant; conditions: L33/E35/V41 substituted with alanine
T2 construct: the mutant MBP-tagged MST2 (amino acid 1–308, L33/E35/V41A); MBP; made in house; host or cells: E. coli BL21 Codon plus (DE3)

HEK293A cells = assay: DNA repair after etoposide (residual γ-H2AX immunoblot); type: cell-based; conditions: 20 μM etoposide 2 h, then with or without compound 6 h
[2] = system: YAP target gene CTGF in HGC-27 cells; assay: CTGF mRNA (qPCR) in HGC-27 cells; conditions: 48 h
HGC-27 cells [3] = assay: Colony formation assay in HGC-27 cells; conditions: about 2 weeks
Experimental: After about 2 weeks incubation, cell colonies were identified by their being stained with 1% crystal violet dye. And colonies with diameters of >1 mm were counted.

MST2 = target: T3, MST2 (Homo sapiens, UniProt Q13188); assay: MST assay, binding to MST2
T3 construct: made in house; host or cells: E. coli BL21 Codon plus (DE3)
T3 sequence (Q13188 1-491): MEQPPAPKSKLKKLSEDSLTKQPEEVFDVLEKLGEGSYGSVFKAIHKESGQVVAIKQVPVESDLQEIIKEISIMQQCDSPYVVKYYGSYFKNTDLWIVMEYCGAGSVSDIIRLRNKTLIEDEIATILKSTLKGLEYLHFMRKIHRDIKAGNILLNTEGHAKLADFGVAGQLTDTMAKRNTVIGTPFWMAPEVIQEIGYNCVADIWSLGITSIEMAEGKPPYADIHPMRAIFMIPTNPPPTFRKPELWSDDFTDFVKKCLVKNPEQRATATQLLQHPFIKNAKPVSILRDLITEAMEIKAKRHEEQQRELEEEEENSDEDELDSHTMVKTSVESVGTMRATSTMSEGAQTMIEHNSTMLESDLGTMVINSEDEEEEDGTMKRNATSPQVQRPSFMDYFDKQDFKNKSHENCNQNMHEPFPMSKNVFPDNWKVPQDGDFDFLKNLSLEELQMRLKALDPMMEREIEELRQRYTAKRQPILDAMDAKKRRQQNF

PP2Aa = target: T4, PP2Aa (Homo sapiens, UniProt P30153); assay: MST assay, binding to PP2Aa
T4 construct: GST; made in house; host or cells: E. coli BL21 Codon plus (DE3)

[4] = system: YAP target gene CTGF in GES-1 cells; assay: CTGF mRNA (qPCR) in GES-1 cells; conditions: 48 h
zebrafish larvae = conditions: ref [65], [66]; cited from earlier work
PP2Aa–STRN3 interaction [5] = target: T5, PP2Aa–STRN3 interaction (Homo sapiens, UniProt P30153); assay: Co-IP of HA-PP2Aa and Flag-STRN3 in HEK293A cells; type: cell-based; design: expressed in transfected cells; host or cells: HEK293A
Target sequence in this assay (P30153 whole entry): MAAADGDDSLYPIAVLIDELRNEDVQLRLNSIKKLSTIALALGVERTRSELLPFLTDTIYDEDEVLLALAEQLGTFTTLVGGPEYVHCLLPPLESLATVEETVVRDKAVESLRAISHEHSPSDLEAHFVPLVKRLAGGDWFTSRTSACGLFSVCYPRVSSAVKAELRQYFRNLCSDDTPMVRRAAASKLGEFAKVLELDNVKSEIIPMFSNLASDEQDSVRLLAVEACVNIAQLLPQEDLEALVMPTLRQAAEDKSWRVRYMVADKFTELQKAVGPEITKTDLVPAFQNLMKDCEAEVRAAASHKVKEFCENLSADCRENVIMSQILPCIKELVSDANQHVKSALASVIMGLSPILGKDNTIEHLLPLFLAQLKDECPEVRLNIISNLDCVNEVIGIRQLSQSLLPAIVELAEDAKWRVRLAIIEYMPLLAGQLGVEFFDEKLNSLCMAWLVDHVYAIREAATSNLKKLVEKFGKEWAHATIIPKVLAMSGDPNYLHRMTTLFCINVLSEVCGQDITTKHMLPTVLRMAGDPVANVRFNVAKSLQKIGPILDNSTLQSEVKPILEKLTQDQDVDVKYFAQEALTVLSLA

PP2Aa–STRN3 interaction [6] = target: T5, PP2Aa–STRN3 interaction; assay: GST pulldown assay, PP2Aa–STRN3; type: binding; design: GST; SUMO; made in house; host or cells: E. coli BL21 Codon plus (DE3); conditions: recombinant GST-PP2Aa and His-Sumo-STRN3; up to 10 μM compound
Target sequence in this assay (P30153 8-589): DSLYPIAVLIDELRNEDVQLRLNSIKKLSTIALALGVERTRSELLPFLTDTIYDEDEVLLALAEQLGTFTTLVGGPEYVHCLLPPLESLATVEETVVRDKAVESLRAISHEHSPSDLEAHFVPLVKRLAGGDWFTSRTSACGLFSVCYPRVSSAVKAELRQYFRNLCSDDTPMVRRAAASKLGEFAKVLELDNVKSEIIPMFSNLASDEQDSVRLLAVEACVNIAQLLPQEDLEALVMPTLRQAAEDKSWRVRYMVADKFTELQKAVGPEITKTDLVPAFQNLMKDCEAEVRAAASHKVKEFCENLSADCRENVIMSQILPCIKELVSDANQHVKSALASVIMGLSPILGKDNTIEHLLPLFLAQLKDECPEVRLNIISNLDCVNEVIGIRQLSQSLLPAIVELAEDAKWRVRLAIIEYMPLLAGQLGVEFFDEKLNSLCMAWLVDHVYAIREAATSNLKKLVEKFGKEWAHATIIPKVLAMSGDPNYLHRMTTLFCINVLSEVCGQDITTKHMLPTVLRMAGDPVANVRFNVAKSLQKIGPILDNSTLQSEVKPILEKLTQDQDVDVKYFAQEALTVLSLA

[7] = target: T6, purified MST2 recombinant protein (UniProt Q13188); assay: MST; Monolith NT.115, 25 °C, fluorescent-labeled protein; STRN3 and MST2 without CX
T6 sequence (Q13188 1-491, species assumed, looked up): T3 sequence (Q13188 1-491)

purified PP2Aa (8–589) [8] = target: T7, purified PP2Aa (8–589) (UniProt P30153 8-589); assay: MST; Monolith NT.115, 25 °C, fluorescent-labeled protein; STRN3 to PP2Aa, also with DSF or TH added; conditions: both partners purified
T7 construct: As used in ITC and MST

purified PP2Aa (8–589) [9] = target: T7, purified PP2Aa (8–589); conditions: both partners purified
[10] = target: T8, MBP-tagged MST2 (amino acid 1–308) (UniProt Q13188 1-308); conditions: both partners purified
T8 construct: MST2 kinase, amino acid 1-308; also called MBP-MST2; source: E. coli BL21 Coden plus (DE3), purified (MBP beads, size-exclusion chromatography)
T8 sequence (looked up): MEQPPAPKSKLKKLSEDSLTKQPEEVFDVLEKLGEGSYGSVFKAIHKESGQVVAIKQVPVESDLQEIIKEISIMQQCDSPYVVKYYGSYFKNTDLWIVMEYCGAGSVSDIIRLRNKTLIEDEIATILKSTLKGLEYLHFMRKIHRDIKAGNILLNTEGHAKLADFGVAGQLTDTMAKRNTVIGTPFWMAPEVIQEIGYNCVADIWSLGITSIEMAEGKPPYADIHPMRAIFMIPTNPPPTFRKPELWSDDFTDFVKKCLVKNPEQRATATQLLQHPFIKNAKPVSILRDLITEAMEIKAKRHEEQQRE

[11] = target: T9, GST-tagged MST2 (amino acid 1–308) (UniProt Q13188 1-308); conditions: both partners purified
T9 construct: MST2 kinase, amino acid 1-308; also called GST-MST2; source: E. coli BL21 Coden plus (DE3), purified (GST beads, size-exclusion chromatography)
T9 sequence (looked up): T8 sequence (looked up)

[12] = cell viability, read-out: IC50 values in HGC-27 cells
[13] = Homo sapiens, HGC-27, cell viability, read-out: IC50 values in HGC-27 cells

T4 sequence (P30153 8-589): as the sequence (P30153 8-589) above
T7 sequence (P30153 8-589): as the sequence (P30153 8-589) above
T2 sequence (Q13188 1-308 L33A/E35A/V41A): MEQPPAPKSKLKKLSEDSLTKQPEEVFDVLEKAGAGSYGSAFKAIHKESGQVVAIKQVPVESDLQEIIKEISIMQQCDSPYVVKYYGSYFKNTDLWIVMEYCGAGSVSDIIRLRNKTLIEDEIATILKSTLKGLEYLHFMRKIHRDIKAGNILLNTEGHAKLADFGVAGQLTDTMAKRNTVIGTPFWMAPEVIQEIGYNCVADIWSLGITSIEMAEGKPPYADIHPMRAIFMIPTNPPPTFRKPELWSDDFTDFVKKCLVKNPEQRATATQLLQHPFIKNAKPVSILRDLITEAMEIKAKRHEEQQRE

O=C([O-])c1ccccc1-c1c2cc(Br)c(=O)cc-2oc2[c]([Hg+])c([O-])c(Br)cc12.[Na+].[Na+].[OH-] [Merbromin]
IC50 (HGC-27 cells [1]; [12]): 15.2 µM

N.N.[Cl][Pt][Cl] [cisplatin]
efficiency in killing cancer cells (MKN-28 cells; nontoxic concentrations, alone or combined): about 20%
IC50 (11 different GC cells): < 20 µM
efficiency in killing cancer cells (AGS cells; 0.05 μM DSF, 20 μM cisplatin, alone or combined): about 20%
tumor weight / tumor growth (AGS cells xenograft): modestly lower tumor weights

Oc1cc2c(cc1O)C1c3ccc(O)c(O)c3OCC1(O)C2 (centres unmarked) [HAEMATOXYLIN]
IC50 (HGC-27 cells [1]; [13]): 37.9 µM

CN1C(=O)c2sccc2N(C)c2nc(Nc3ccc(S(N)(=O)=O)cc3)ncc21 [XMU-MP-1]
effect of co-treatment on cisplatin sensitivity (NUGC-4 cells): triggered much more resistance to cisplatin

Cc1ccc(C(=O)Nc2ccc(S(=O)(=O)[O-])c3cc(S(=O)(=O)[O-])cc(S(=O)(=O)[O-])c23)cc1NC(=O)c1cccc(NC(=O)Nc2cccc(C(=O)Nc3cc(C(=O)Nc4ccc(S(=O)(=O)[O-])c5cc(S(=O)(=O)[O-])cc(S(=O)(=O)[O-])c45)ccc3C)c2)c1.[Na+].[Na+].[Na+].[Na+].[Na+].[Na+] [Suramin Sodium Salt]
STRN3–MST2 interaction in MBP pull-down (STRN3–MST2 interaction): able to disrupt
inhibition of HGC-27 cell growth / viability (HGC-27 cells [1]): not

COc1cc2c(NC3CCN(CC4CCCCC4)CC3)nc(N3CCCN(C(C)C)CC3)nc2cc1OCCCN1CCCCC1 [UNC0631]
IC50 (HGC-27 cells [1]; [12]): < 5 µM and 2.86 µM

CN1CCCN(C(=O)c2cccc(-c3ccc(C=C4C(=O)Nc5ccc(Cl)cc54)o3)c2)CC1 [CX, CX-6258]
STRN3–MST2 interaction in MBP pull-down (STRN3–MST2 interaction): able to disrupt
sensitization of GC cells to cisplatin (MKN-28 cells; 1 μM CX and 20 μM cisplatin): greatly sensitized GC cells to cisplatin
binding to MST2^Mut (MST2^Mut (L33/E35/V41A)): failed to bind with CX
DNA repair (residual γ-H2AX) (HEK293A cells): markedly attenuated the repair
mRNA levels of YAP target gene CTGF [2]: dose-dependently decreased
colony formation of HGC-27 cells (HGC-27 cells [3]): inhibited
inhibition of HGC-27 cell growth / viability (HGC-27 cells [1]): significantly inhibit; also recorded: inhibited the cell viability; also recorded: comparable with DSF
Kd (MST2): 0.339 µM
effect on STRN3–MST2 binding (MST2; in the presence of compound): could not bind with each other in the presence of CX

CN(C)C(=S)SSC(=S)N(C)C [TH, thiram]
Kd (PP2Aa): 1.52 µM
binding affinity to PP2Aa relative to that of STRN3 to PP2Aa (PP2Aa): 14 fold
effect on binding of STRN3 to PP2Aa (PP2Aa; compound added): efficiently disrupt
mRNA levels of YAP target gene CTGF [4]: no significant change
sensitization of GC cells to cisplatin (AGS cells; 0.1 μM TH and 10 μM cisplatin): significantly sensitized GC cells to cisplatin
adverse effects in zebrafish larvae (zebrafish larvae): adverse effects
DNA repair (residual γ-H2AX) (HEK293A cells): decreased
colony formation of HGC-27 cells (HGC-27 cells [3]): significantly inhibited colony formation
IC50 (HGC-27 cells [1]; [13]): 0.4 µM
effect of addition of copper ion on suppression of HGC-27 cell viability by the compound (HGC-27 cells [1]; compound-Cu complex vs compound): markedly enhanced
PP2Aa–STRN3 interaction in Co-IP (PP2Aa–STRN3 interaction [5]): further validated by Co-IP assay
PP2Aa–STRN3 association in GST pulldown (PP2Aa–STRN3 interaction [6]): efficiently disrupt

COc1ccc(C(=O)O[C@H]2CC[C@@]3(C)[C@@H]4CC[C@H]5[C@]6(O)C[C@H](O)[C@@]7(O)[C@@H](CN8C[C@@H](C)CC[C@H]8[C@@]7(C)O)[C@]6(O)C[C@@]53O[C@]24O)cc1OC [Veratridine]
IC50 (HGC-27 cells [1]; Homo sapiens, HGC-27, read-out: IC50 values in HGC-27 cells): 15.7 µM

CC(=O)[O][Hg][c]1ccccc1 [Phenylmercuric acetate]
IC50 (HGC-27 cells [1]; cell viability, listed as phenylmercuric acetate, read-out: IC50 values in HGC-27 cells): < 5 µM
IC50 (HGC-27 cells [1]; [12]): 4.05 µM

O=c1c2ccccc2[se]n1-c1ccccc1 [Ebselen]
IC50 (HGC-27 cells [1]; [13]): 27.5 µM

B1: STRN3 (64–145) (domain or fragment, UniProt Q13033 64-145, looked up)
chain: TIPGILHYIQHEWARFEMERAHWEVERAELQARIAFLQGERKGQENLKKDLVRRIKMLEYALKQERAKYHKLKYGTELNQGD
notes: STRN3 (striatin-3), amino acid 64-145
Kd [7]: 0.624 µM
Kd (purified PP2Aa (8–589) [8]): 20.7 µM
Kd (purified PP2Aa (8–589) [9]): 11.9 µM

B2: His-SUMO-tagged STRN3 (amino acid 64–145) (domain or fragment, UniProt Q13033 64-145, looked up)
chain: B1 chain
notes: STRN3 (striatin-3), amino acid 64-145; Used where the tag is named or used for capture: the GST and MBP pull-downs and the nickel chelate acceptor beads of the AlphaScreen; also called HS-STRN3; His-tagged STRN3
binding result [10]: binds
binding result [11]: binds

B3: STRN3: recombinant His-SUMO-tagged STRN3 (amino acid 64–145), binding partner of PP2Aa and MST2 (protein, UniProt Q13033 64-145, looked up, fragment)
chain: B1 chain
modifications: His-SUMO tag
Kd (MST2): 0.624 µM
